According to article PMC11642016 (International Journal of Molecular Sciences, 2024):
“And” between values parts separate entries of the source, which are not always exact repeats. Identical values can stand only once. Like-named read-outs stand apart in the source and are kept apart here.

Assays:
[1] = test system: PANC-1 cells; assay: Colony formation (clonogenic) assay; assay type: cell-based, human; conditions: 4 µM
[2] = CellTiter-Glo luminescent cell viability assay, primary fibroblasts; conditions: human, primary skin fibroblasts (non-tumorous), Primer fibroblast Cell viability (% of controll), 72 h, dose–response, individual replicates
[3] = test system: non-tumorous primary fibroblast cells; assay: as above; conditions: for Primer fibroblast Cell viability (% of controll): dose–response, individual replicates; for IC50: Homo sapiens, Fibroblast
[4] = test system: PANC-1 cells; assay: CellTiter-Glo luminescent cell viability assay, PANC-1
[5] = test system: Fadu cells; assay: CellTiter-Glo luminescent cell viability assay, Fadu; conditions: 72 h, dose–response, individual replicates

CNCC#Cc1cccc(CN2C(=O)C3=C(CCN(Cc4ccc(-n5cc(-c6ccccc6)nn5)cc4)C3)N3CCN=C23)c1 [38b]
viable cells / colonies after shorter exposure ([1]; 24 h treatment followed by 5 days post-incubation): left only traces of viable cells | viable cells / colonies after longer exposure ([1]; 72 h treatment followed by 3 days post-incubation): no viable cells were discernible | viability at 72 h, 0.7 µM ([2]; 0.7 μM): 103% | viability at 72 h, 1 µM ([2]; 1 μM): 112% | viability at 72 h, 1.5 µM ([2]; 1.5 μM): 106% | viability at 72 h, 2.3 µM ([2]; 2.3 μM): 116% | viability at 72 h, 3.4 µM ([2]; 3.4 μM): 112% | viability at 72 h, 5.1 µM ([2]; 5.1 μM): 6% | viability at 72 h, 7.7 µM ([2]; 7.7 μM): 0% | viability at 72 h, 17.3 µM ([2]; 17.3 μM): 0% | viability at 72 h, 26 µM ([2]; 26 μM): 0% | Primer fibroblast Cell viability (% of controll) ([3]; 0.7 μM, 72 h): 107 % of controll and 109 % of controll | Primer fibroblast Cell viability (% of controll) ([3]; 1 μM, 72 h): 117 % of controll and 101 % of controll | Primer fibroblast Cell viability (% of controll) ([3]; 1.5 μM, 72 h): 118 % of controll | Primer fibroblast Cell viability (% of controll) ([3]; 2.3 μM, 72 h): 107 % of controll | Primer fibroblast Cell viability (% of controll) ([3]; 3.4 μM, 72 h): 110 % of controll and 101 % of controll | Primer fibroblast Cell viability (% of controll) ([3]; 5.1 μM, 72 h): 5 % of controll and 8 % of controll | Primer fibroblast Cell viability (% of controll) ([3]; 7.7 μM, 72 h): 0 % of controll | Primer fibroblast Cell viability (% of controll) ([3]; 17.3 μM, 72 h): 0 % of controll | Primer fibroblast Cell viability (% of controll) ([3]; 26 μM, 72 h): 0 % of controll | IC50 ([3]; 72 h, read-out: IC50 Value ± SEM Primary Fibroblast, 72 h treatment, best-fit values, n = 3): 4.4 ± 0.23 µM | IC50 ([3]; read-out: Primary fibroblast IC50 values, Mean, mean of independently fitted replicate IC50 values (Supplement S.6), ONC201 value mathematically estimated from inflection point): 4.45 µM | PANC-1 Cell viability (% of controll) ([4]; 0.7 μM, 72 h, dose–response, individual replicates): 103 % of controll | PANC-1 Cell viability (% of controll) ([4]; 1 μM, 72 h, dose–response, individual replicates): 108 % of controll | PANC-1 Cell viability (% of controll) ([4]; 1.5 μM, 72 h, dose–response, individual replicates): 107 % of controll and 116 % of controll | PANC-1 Cell viability (% of controll) ([4]; 2.3 μM, 72 h, dose–response, individual replicates): 79 % of controll and 98 % of controll | PANC-1 Cell viability (% of controll) ([4]; 3.4 μM, 72 h, dose–response, individual replicates): 0 % of controll and 1 % of controll | PANC-1 Cell viability (% of controll) ([4]; 5.1 μM, 72 h, dose–response, individual replicates): 0 % of controll | PANC-1 Cell viability (% of controll) ([4]; 7.7 μM, 72 h, dose–response, individual replicates): 0 % of controll | PANC-1 Cell viability (% of controll) ([4]; 17.3 μM, 72 h, dose–response, individual replicates): 0 % of controll | PANC-1 Cell viability (% of controll) ([4]; 26 μM, 72 h, dose–response, individual replicates): 0 % of controll | viability at 2.8 µM ([4]; Homo sapiens, PANC-1, 72 h, read-out: Cell Viability (% of Control) 2.8 µM, PANC-1, 2.8 µM, 72 h, second-set screening, mean ± SD, n = 2): 6 ± 6% | viability at 8.3 µM ([4]; Homo sapiens, PANC-1, 72 h, read-out: Cell Viability (% of Control) 8.3 µM, PANC-1, 8.3 µM, 72 h, second-set screening, mean ± SD, n = 2): 0% | viability at 25 µM ([4]; Homo sapiens, PANC-1, 72 h, read-out: Cell Viability (% of Control) 25 µM, PANC-1, 25 µM, 72 h, second-set screening, mean ± SD, n = 2): 0% | IC50 ([4]; Homo sapiens, PANC-1, 72 h, read-out: IC50 Value ± SEM PANC-1, 72 h treatment, best-fit values, n = 3): 2.5 ± 0.23 µM | viability at 0.7 µM ([4]; Homo sapiens, PANC-1, 72 h, read-out: PANC-1 Cell viability (% of controll), 0.7 μM, 72 h, dose–response, individual replicates): 110% | viability at 1 µM ([4]; Homo sapiens, PANC-1, 72 h, read-out: PANC-1 Cell viability (% of controll), 1 μM, 72 h, dose–response, individual replicates): 110% | viability at 1.5 µM ([4]; Homo sapiens, PANC-1, 72 h, read-out: PANC-1 Cell viability (% of controll), 1.5 μM, 72 h, dose–response, individual replicates): 109% | viability at 2.3 µM ([4]; Homo sapiens, PANC-1, 72 h, read-out: PANC-1 Cell viability (% of controll), 2.3 μM, 72 h, dose–response, individual replicates): 81% | viability at 5.1 µM ([4]; Homo sapiens, PANC-1, 72 h, read-out: PANC-1 Cell viability (% of controll), 5.1 μM, 72 h, dose–response, individual replicates): 0% | viability at 7.7 µM ([4]; Homo sapiens, PANC-1, 72 h, read-out: PANC-1 Cell viability (% of controll), 7.7 μM, 72 h, dose–response, individual replicates): 0% | viability at 17.3 µM ([4]; Homo sapiens, PANC-1, 72 h, read-out: PANC-1 Cell viability (% of controll), 17.3 μM, 72 h, dose–response, individual replicates): 0% | viability at 26 µM ([4]; Homo sapiens, PANC-1, 72 h, read-out: PANC-1 Cell viability (% of controll), 26 μM, 72 h, dose–response, individual replicates): 0% | IC50 ([4]; Homo sapiens, PANC-1, read-out: PANC-1 IC50 values, Mean, mean of independently fitted replicate IC50 values (Supplement S.6)): 2.45 µM | Selectivity Index (SI) Fibroblast/PANC-1 ([4]; ratio of mean best-fit IC50 for primary fibroblasts and best-fit IC50 for PANC-1): 1.8 | Fadu Cell viability (% of controll) ([5]; 0.7 μM): 108 % of controll and 109 % of controll | Fadu Cell viability (% of controll) ([5]; 1 μM): 109 % of controll and 105 % of controll | Fadu Cell viability (% of controll) ([5]; 1.5 μM): 105 % of controll and 106 % of controll | Fadu Cell viability (% of controll) ([5]; 2.3 μM): 99 % of controll and 98 % of controll | Fadu Cell viability (% of controll) ([5]; 3.4 μM): 70 % of controll and 37 % of controll and 29 % of controll | Fadu Cell viability (% of controll) ([5]; 5.1 μM): 10 % of controll and 1 % of controll and 2 % of controll | Fadu Cell viability (% of controll) ([5]; 7.7 μM): 0 % of controll | Fadu Cell viability (% of controll) ([5]; 17.3 μM): 0 % of controll
